# Read-outs that look alike come from different tables or passages of the source.
# System: disturbances of the cardiac rhythm (aconitine) in the rat
# Assay type: in vivo
# Settings: for Precentage of the protraction of time: aconitine perfusion five minutes after administration, compared with controls
compound,measurement,setting,value
"CN1CCC[C@H]2CCC[C@@H](N(C)C(=O)Cc3ccc(Cl)c(Cl)c3)[C@@H]21 [Example 2, [4aRS(4aα,8α,8aα)](+) N-(decahydro-1-methyl-8-quinolinyl)-3,4-dichloro-N-methyl-benzene-acetamide]",Precentage of the protraction of time,2.5 mg/kg intravenously,16%
same,Precentage of the protraction of time,5 mg/kg intravenously,28%
same,Precentage of the protraction of time,10 mg/kg intravenously,43%
same,antiarrythmic properties (in words),"intravenously, aconitine model",good antiarrythmic properties
